Assay results as given in US20080160099A1, “Methods For Treating or Preventing a Vascular Disease” (THE TRUSTEES OF COLUMBIA UNIVERSITY IN THE CITY OF NEW YORK, priority 2004, published 2008).

What was measured:
Assay type in all cases: biochemical
MMP-2 = molecular target: T1, MMP-2 (Homo sapiens, UniProt P08253); experiment: MMP-2 activity in lysates of fibroblasts cultured from AAA specimens, gelatin zymography with densitometry; conditions: for MMP-2 inhibitory ability (in words): aneurysmal fibroblast MMP-2; for MMP-2 Inhibitory Activity: relative, aneurysmal fibroblast lysates, 1 hour incubation on ice
T1 construct: endogenous in cells; host or cells: fibroblasts cultured from AAA (abdominal aortic aneurysm) specimens
T1 sequence (P08253 110-660): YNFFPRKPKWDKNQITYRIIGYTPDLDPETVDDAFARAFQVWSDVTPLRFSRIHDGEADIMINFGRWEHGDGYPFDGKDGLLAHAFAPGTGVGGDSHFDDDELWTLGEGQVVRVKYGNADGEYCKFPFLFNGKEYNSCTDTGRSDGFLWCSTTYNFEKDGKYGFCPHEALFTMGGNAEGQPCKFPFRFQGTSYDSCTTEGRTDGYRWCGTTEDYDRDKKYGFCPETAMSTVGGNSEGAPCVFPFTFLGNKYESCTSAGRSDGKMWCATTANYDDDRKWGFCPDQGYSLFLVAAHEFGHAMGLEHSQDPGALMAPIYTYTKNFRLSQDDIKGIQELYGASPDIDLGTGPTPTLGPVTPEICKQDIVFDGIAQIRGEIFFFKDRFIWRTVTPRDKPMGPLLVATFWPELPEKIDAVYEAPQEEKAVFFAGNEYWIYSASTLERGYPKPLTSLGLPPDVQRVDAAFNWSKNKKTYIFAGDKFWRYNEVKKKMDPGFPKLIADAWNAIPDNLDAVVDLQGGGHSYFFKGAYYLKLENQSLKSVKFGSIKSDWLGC
Experimental: Properties of different test compounds against MMP-2 activity of aneurysmal fibroblast origin were examined on 10% polyacrylamide gels containing 1.0 mg/mL of gelatin. Fibroblasts cultured from AAA specimens were lysed using the CellLytic-M lysis/extraction reagent. The protein concentration of each supernatant was determined using the Bradford method using bovine serum albumin as a standard. The aortic fibroblast lysates were incubated alone (control) or with an illustrative Compound or Extract of the Invention at various concentrations for 1 hour on ice. After test compound incubation, equivalent amounts of proteins (30 μg) were mixed with an equal volume of sample buffer (2% SDS, 125 mM Tris-HCL, pH 6.8, 10% glycerol and 0.001% bromophenol blue) and the resulting mixture was subjected to electrophoresis in Trir-glycine el. buffer (25 mMTris pH 8.3, 250 mM Glycine, 0.1% SDS) under denatured but non-reduced conditions. After completion of electrophoresis, the gels were incubated in 2% Triton X-100 for 30 min at room temperature to ensure complete removal of SDS. The gels were then incubated at 37° C. overnight in development buffer (0.005M Tris-HCl (pH 7.5), 0.2MNaCl, 0.005MCaCl2, and 0.02% Brij-35) (Bio-Rad). Gels were stained with 0.05% Coomassie blue R250 (Bio-Rad) for 30 min and destained twice in a mixture of 40% methanol and 10% acetic acid for 20 min. Enzyme activity was detected as unstained bands on a blue background. Quantity One (Bio-Rad Version 4.3.1) was used as a densitometer to quantitate test compound inhibitory ability.

total complement = experiment: Total complement activity (CH50) in human serum; conditions: 30 minutes at 37° C.
Experimental: Blood was collected from a healthy human donor and allowed to clot at room temperature for 60 minutes. The serum was separated from the clotted blood and transferred to a clean tube. Fucosylated chondroitin sulfate (FCS) was incubated in concentrations of 0.1 mg/mL, 0.4 mg/mL and 1 mg/mL for 30 minutes at 37° C. and the complement was examined by assaying total complement activity (CH50). Complement inhibition was about 40% at a FCS concentration of 0.1 mg/mL, about 83% at a concentration of 0.4 mg/mL and complete at a concentration of 1.0 mg/mL.

C3a = experiment: Complement factor C3a levels in normal human serum, with or without HAGG; conditions: alone and with HAGG, 30 minutes at 37° C.
Experimental: (§1) An experiment to measure the complement factors C3a and C5a was carried out at […] for 30 minutes using heat-aggregated gamma globulin (HAGG, at 14 mg/mL), a complement activator with known activity, as a positive control.
(§2) Four separate mixtures were prepared by mixing 8 parts of normal human serum with: (1) 2 parts saline, (2) 1 part saline and 1 part HAGG, (3) 1 part saline and 1 part fucosylated chondroitin sulfate (FCS), or (4) 1 part HAGG and 1 part FCS. These four mixtures were then incubated for 30 minutes at 37° C. and the complement was examined by assaying for levels of C3a and C5a.

C5a = experiment: Complement factor C5a levels in normal human serum, with or without HAGG; conditions: alone and with HAGG, 30 minutes at 37° C.
Experimental: as §1, §2

Row | Compound | MMP-2 inhibitory ability (in words) (MMP-2) | MMP-2 Inhibitory Activity (MMP-2) | Complement inhibition (CH50) (total complement; 0.1 mg/mL) | Complement inhibition (CH50) (total complement; 0.4 mg/mL) | Complement inhibition (CH50) (total complement; 1.0 mg/mL) | inhibitory activity toward C3a (C3a) | inhibitory activity toward C5a (C5a)
1 | CCC(C)CCCCCCCCCCC(=O)O (centres unmarked) [12-methyltetradecanoic acid] | inhibit aneurysmal fibroblast MMP-2 activity | + |  |  |  |  | 
2 | Oc1cc(O)c2c(c1)O[C@H](c1cc(O)c(O)c(O)c1)[C@H](O)C2 [(−)-epigallocatechin] | inhibit aneurysmal fibroblast MMP-2 activity | + |  |  |  |  | 
3 | fucosylated chondroitin sulfate | inhibit aneurysmal fibroblast MMP-2 activity | +++ | about 40% | about 83% | complete | strong inhibitory activity | strong inhibitory activity
